# Measured values reported in patent US20260272871A1, “USE OF RETINOIC ACID RECEPTOR ACTIVATOR AND COMPOSITION THEREOF IN REGENERATION AND REPAIR OF MAMMALS” (INSTITUTE OF ZOOLOGY, CHINESE ACADEMY OF SCIENCES, priority 2022, published 2026).
# “Also recorded” adds a separate entry of the source.
# Key:
# [1] = tested on: 2 mm diameter mouse ear hole; assay: 2 mm ear hole trauma mouse model (ear hole closure); format: in vivo, C57BL/6 mice; conditions: for healing of 2 mm ear holes by inhibitors of ferroptosis and autophagy: 10-20 mg/kg, measured 21 days after damage, vs DMSO and CHX, FIG. 3; for ear hole regeneration (healing) on interfering with potential RA targets: 10 or 20 mg/kg per reagent, 21 days after the trauma, FIG. 5B
# [2] = tested on: 4 mm diameter mouse ear hole; set-up: species or system mice; conditions: in vivo
# scalded skin of mice = assay: Scald scar formation in mice; format: in vivo; conditions: after 40 days of administration, after hair shaving, vs Vehicle; FIG. 7
# Description: Experimental method: 7-week-old mice were used and (1) mice were anesthetized by intraperitoneal injection of 0.5% pentobarbital sodium (100 μl/10 g b.w.); (2) the back was shaved, and the skin was disinfected with 75% alcohol. (3) the mice were scalded with boiling water for 10-15 seconds. The scald area was a circle with a diameter of 1.5 cm. […] (5) wound repair status was detected.
smiles,measurement,setting,value
"C[C@@H]1C[C@@H]([C@H](O)CC2CC(=O)NC(=O)C2)C(=O)[C@@H](C)C1 [CHX, 4-((R)-2-((1S,3S,5S)-3,5-dimethyl-2-oxocyclohexyl)-2-hydroxyethyl)piperidine-2,6-dione]",HE staining of auricle tissue 180 days after ear hole closure,"[1]; mouse, in vivo","regeneration of tissues and tissue derivatives such as hair follicles, glands, cartilage, muscles and blood vessels"
same,HE staining of mouse auricle tissue,"[1]; mouse, in vivo",the trauma had completely healed
same,"HE staining of mouse auricle tissue, 15th day","[1]; mouse, in vivo",healed the tissue after damage and formed granulation tissue
same,KI67 immunohistochemical staining of mouse auricle tissue,"[1]; mouse, in vivo",expressed a large amount of KI67
same,concentration (dose) above which the ear hole wound was completely closed,"[1]; mouse, in vivo",greater than 8 mg/kg
same,dose dependence of promotion of 2 mm ear hole healing,"[1]; mouse, in vivo",dose-dependent
same,effect of different administration manners on ear hole healing,"[1]; mouse, in vivo",different manners of administration had the effect of promoting regeneration
same,healing condition of 2 mm ear hole (photograph),"[1]; mouse, in vivo",had completely closed
same,healing of the 2 mm ear hole,"[1]; mouse, in vivo",could significantly promote the healing of the ear hole; also recorded: the healing effect of CHX was better
same,closure of 2 mm diameter ear holes at different concentrations of CHX,"[1]; mouse, in vivo, ip",promoted the closure
same,closure of 4 mm diameter ear holes,[2],"promoted the shrinkage of ear hole wounds, but could not completely close them; also recorded: complete closure of the ear holes could be achieved"
same,wound area of the 4 mm mouse ear hole,[2],significantly reduced
O=C1OC(COc2ccccc2[N+](=O)[O-])CC1Cc1ccccc1 (stereo not shown) [3BDO],healing of 2 mm ear holes by inhibitors of ferroptosis and autophagy,[1],Neither inhibitors of ferroptosis nor autophagy could promote the healing of the ear hole like CHX
Cc1ccc(C2=CCC(C)(C)c3ccc(C#Cc4ccc(C(=O)O)cc4)cc32)cc1 [AGN193109],effect of RAR inhibitor on CHX-induced ear hole healing,"[1]; CHX 20 mg/kg + AGN 0.75 mg/kg i.p., 21 days after damage, FIG. 4",completely inhibit the healing of the ear holes induced by CHX
same,effect of RAR inhibitor on the coordinated effect of CHX+RA,"[1]; CHX 20 mg/kg + RA 5 mg/kg + AGN 0.75 mg/kg i.p., 21 days after damage, FIG. 4",could still be inhibited
CCC(CC)C(c1ccc(Nc2nc3ccccc3s2)cc1)n1cncn1 (stereo not shown) [Talarozole],ear hole regeneration (healing) on interfering with potential RA targets,[1],could also promote ear hole regeneration
CC1=C(/C=C/C(C)=C/C=C/C(C)=C/CO)C(C)(C)CCC1 [vitamin A],ear hole regeneration (healing) on interfering with potential RA targets,[1],could also promote ear hole regeneration
"COc1ccc(C[C@H]2NC[C@H](O)[C@H]2OC(C)=O)cc1 [Ani, Anisomycin]",healing of the 2 mm ear hole,"[1]; mouse, in vivo",could significantly promote the healing of the ear hole
O=S(=O)(NCCN1CCNCC1)c1ccc(NC2CCCCC2)c(NCc2ccccc2)c1 [UAMC-3203],healing of 2 mm ear holes by inhibitors of ferroptosis and autophagy,[1],Neither inhibitors of ferroptosis nor autophagy could promote the healing of the ear hole like CHX
Cc1cc(Nc2cc(Cl)nc(Oc3ccc([N+](=O)[O-])cc3)n2)n[nH]1 [Autophinib],healing of 2 mm ear holes by inhibitors of ferroptosis and autophagy,[1],Neither inhibitors of ferroptosis nor autophagy could promote the healing of the ear hole like CHX
"CC1=C(/C=C/C(C)=C/C=C/C(C)=C/C(=O)O)C(C)(C)CCC1 [RA, all-trans retinoic acid]",closure of the ear hole with RA alone,"[1]; RA 5 mg/kg, 20 mg/kg vs DMSO, 21 days after ear hole damage, FIG. 5A",promote the closure of the ear hole in a dose-dependent manner
same,scar area after scald,scalded skin of mice,significantly reduce the scar area
